Source: patent US20180256496A1, “CONTROLLED-RELEASE FORMULATIONS” (Camurus AB, priority 2015, published 2018)

Parameters: species or system dog (beagle)
Conditions: dog, in vivo, sc
Procedure: The in vivo release profiles of granisetron and buprenorphine after subcutaneous injection of Formulations 7A and 7B (Example 7) in dog (beagle) was evaluated using the doses set out in Table 13. The animals were dosed on Days 1 and 8 with the respective formulation.
A validated bioanalytical method was used for the determination of GRN in dog plasma. The analytical method employed liquid chromatography with tandem mass spectrometric detection. The lower limit of quantification of the analytical method was 0.05 ng/mL. The calibration curve ranged from 0.05 to 50.0 ng/mL. Samples above the upper limit of quantitation were diluted into range using control beagle K2-EDTA plasma.

dose linearity with respect to exposure (AUC): dose linearity was indicated
Structure (SMILES): CN1[C@@H]2CCC[C@H]1C[C@@H](NC(=O)c1nn(C)c3ccccc13)C2 [granisetron]
